The test system of one test is Hek 293T cells. Description: H2O2 consumption in cell lysates as a function of NaSH concentration. Format: biochemical. The note with it: read-out: relative IC50 (rate of H2O2 consumption). The procedure:
(§1) CAT activity was measured on an Uvikon 941 spectrophotometer equipped with a temperature controlled water bath (±1 °C) by following the disappearance of H2O2 at 240 nm over 30–120 s at 25 °C. Catalase activity was calculated based on the rate of decomposition of hydrogen peroxide, which is proportional to the reduction of the absorbance at 240 nm. Experiments were carried out in a 3 ml quartz cuvette containing 11.7 mM H2O2 in 50 mM KPi, pH 7.4±1 mM DTPA and the reaction was initiated by adding 0.3–0.6 pmoles of CAT. The effect of biological thiols on the activity of CAT under physiological conditions was determined from a solution of CAT (30–60 nM) preincubated at 25 °C for at least 120 min as a function thiol concentration (0–40 mM for HCys and Cys, 0–100 mM for GSH) in 50 mM KPi, pH 7.4, 1 mM DTPA. Control experiments (biological thiols alone) were also performed in parallel. […] Similarly, the effect of biological thiols on the activity of CAT under pathological conditions was determined from a solution of CAT (30–60 nM) containing a 2.124±0.386 molar excess of iron that was preincubated with various concentrations of thiols (0–1 mM) for at least 120 min at 25 °C in 50 mM KP at pH 7.4. […] The effect of NaSH on the consumption of H2O2 in cell lysates was determined from a solution of cell lysates (0.5–3 mg ml^−1) incubated on ice with various concentrations of NaSH (0–200 μM). […]

The test system of test [1] is crypt and surface epithelial cells. Described as above. Format: biochemical, mice. The note with it: read-out: relative IC50 (rate of H2O2 consumption). As for the experimental part:
as §1

Like-named read-outs stand apart in the source and are kept apart here.

One compound from paper PMC5116089, “Sulfheme formation during homocysteine S-oxygenation by catalase in cancers and neurodegenerative diseases” (Nature Communications, 2016) can be followed below.

Regarding `[Na+].[SH-]` [NaSH], the IC50 (as a rule, the concentration at which inhibition is half-maximal) with Hek 293T cells (Hek 293T cells transfected with Htt) is 4 ± 1.5 µM; in the test on Hek 293T cells (Hek 293T cells transfected with pcDNA), 6.5 ± 3.6 µM; in test [1] (cells isolated from DSS-treated mice), 21.6 ± 6.2 µM; in test [1] (cells isolated from untreated mice), 25.2 ± 6.7 µM.
